From ChEMBL document CHEMBL5126556, “Recent advances in natural anti-obesity compounds and derivatives based on in vivo evidence: A mini-review” (Eur J Med Chem, 2022)

How the values were obtained:
Mus musculus [1] = test: Anti-obesity activity in male C57BL/6 mouse model of high-fat diet induced obesity assessed as body weight change at 50 mg/kg, po administered once a day for 9 weeks relative to control; format: functional
Mus musculus [2] = test: Anti-obesity activity in male C57BL/6 mouse model of high-fat diet induced obesity assessed as body weight change administered orally with 0.5 g in 500 g of HFD diet for 13 weeks relative to control; format: functional; conditions: route po, at 0.5 g
Mus musculus [3] = test: Anti-obesity activity in male C57BL/6 mouse model of high-fat diet induced obesity assessed as body weight change at 50 mg/kg, po administered once a day for 8 weeks relative to control; format: functional
Mus musculus [4] = test: Anti-obesity activity in male C57BL/6 mouse model of high-fat diet induced obesity assessed as body weight change at 50 mg/kg, ip administered every other day for 5 weeks relative to control; format: functional
Mus musculus [5] = test: Anti-obesity activity in female C57BL/6 mouse model of high-fat diet induced obesity assessed as body weight change at 0.005 % (w/v) administered orally for 16 weeks relative to control; format: functional; conditions: route po
Mus musculus [6] = test: Anti-obesity activity in Swiss male mouse model of high-fat diet induced obesity assessed as body weight change at 10 mg/kg, po administered for 15 weeks relative to control; format: functional
Mus musculus [7] = test: Anti-obesity activity in male C57BL/6 mouse model of high-fat diet induced obesity assessed as body weight change at 20 mg/kg, po administered once a day for 8 weeks relative to control; format: functional
Mus musculus [8] = test: Anti-obesity activity in male C57BL/6 mouse model of high-fat diet induced obesity assessed as body weight change at 1 mg/kg, po administered once a week for 7 weeks relative to control; format: functional
Mus musculus [9] = test: Anti-obesity activity in high-fat diet induced obesity model of C57BL/6J mouse assessed as body weight loss at 20 mg/kg/day, po administered once daily for 14 days relative to control; format: functional; conditions: time 14 day
Mus musculus [10] = test: Anti-obesity activity in high-fat diet induced obesity model of C57BL/6J mouse assessed as body weight loss at 40 mg/kg/day, ip administered once daily for 14 days relative to control; format: functional; conditions: time 14 day
[11] = Acute toxicity in po dosed C57BL/6J mouse assessed as lethal dose; format: organism-based; conditions: in vivo
Mus musculus [12] = test: Anti-obesity activity in male C57BL/6 mouse model of high-fat diet induced obesity assessed as body weight change at 50 mg/kg, po administered once a day for 6 weeks relative to control; format: functional
Mus musculus [13] = test: Anti-obesity activity in male C57BL/6 mouse model of high-fat diet induced obesity assessed as body weight change at 30 mg/kg, po administered once a day for 10 weeks relative to control; format: functional
Mus musculus [14] = test: Anti-obesity activity in high-fat diet induced C57BL/6 obese mouse model assessed as body weight change at 30 mg/kg, po administered once daily for 10 weeks relative to control; format: functional
[15] = Inhibition of V-ATPase in bovine chromaffin granules incubated for 1 hrs by absorbance based assay; format: subcellular, Bos taurus, Chromaffin granule
Mus musculus [16] = test: Anti-obesity activity in male C57BL/6 mouse model of high-fat diet induced obesity assessed as body weight change at 100 mg/kg, po administered once a day for 9 weeks relative to control; format: functional
[17] = molecular target: T1, Dihydrolipoyllysine-residue acetyltransferase component of pyruvate dehydrogenase complex, mitochondrial (Homo sapiens, UniProt P10515); test: Binding affinity to recombinant GFP fused […] (unknown origin) by Lip-SMap analysis
T1 sequence (P10515 whole entry): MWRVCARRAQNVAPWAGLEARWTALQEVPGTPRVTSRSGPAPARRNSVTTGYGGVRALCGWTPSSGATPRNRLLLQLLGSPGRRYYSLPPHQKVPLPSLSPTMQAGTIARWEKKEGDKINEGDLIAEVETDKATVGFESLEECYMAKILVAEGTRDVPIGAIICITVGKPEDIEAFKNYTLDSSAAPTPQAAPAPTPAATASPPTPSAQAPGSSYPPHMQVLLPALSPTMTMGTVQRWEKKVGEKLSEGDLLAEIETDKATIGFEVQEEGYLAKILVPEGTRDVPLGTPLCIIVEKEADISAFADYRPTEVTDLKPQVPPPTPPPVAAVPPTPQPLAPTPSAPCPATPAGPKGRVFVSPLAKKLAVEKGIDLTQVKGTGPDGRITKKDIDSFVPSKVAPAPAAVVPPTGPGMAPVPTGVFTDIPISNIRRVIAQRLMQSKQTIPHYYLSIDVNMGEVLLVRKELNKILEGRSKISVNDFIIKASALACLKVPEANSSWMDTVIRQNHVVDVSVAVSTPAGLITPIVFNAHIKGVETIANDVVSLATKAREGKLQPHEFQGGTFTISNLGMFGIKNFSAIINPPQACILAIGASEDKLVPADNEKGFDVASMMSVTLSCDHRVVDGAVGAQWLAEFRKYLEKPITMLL

Mus musculus [18] = test: Anti-obesity activity in male C57BL/6 mouse model of high-fat diet induced obesity assessed as body weight change at 2.5 mg/kg, ip administered once a day for 8 weeks relative to control; format: functional

CC1(C)C=Cc2cc(-c3coc4cc(O)ccc4c3=O)ccc2O1 [ISOWIGHTEONE]
Activity (Mus musculus [1]): 8.3%

O=c1c(-c2ccc(O)c(O)c2)coc2cc(O)ccc12
Activity (Mus musculus [2]): 63.5%

COc1ccc(-c2coc3cc(O)ccc3c2=O)cc1 [FORMONONETIN]
Activity (Mus musculus [3]): 18.8%

O=Cc1c(-c2nc3ccccc3c(=O)[nH]2)[nH]c2ccccc12
Activity (Mus musculus [4]): -11.8%

CC1(C)CC[C@]2(C(=O)O)CC[C@]3(C)C(=CC[C@@H]4[C@@]5(C)CC[C@H](O)C(C)(C)[C@@H]5CC[C@]43C)[C@@H]2C1 [OLEANOLIC_ACID]
Activity (Mus musculus [5]): 45%
Activity (Mus musculus [6]): 71.9%

C=C1C(=O)O[C@@H]2C[C@@]3(C)CCCC(=C)[C@@H]3C[C@H]12 [ISOALANTOLACTONE]
Activity (Mus musculus [7]): 44.1%

O=C1N[C@@H]2C(=C[C@H](O)[C@@H](O)[C@H]2O)c2cc3c(c(O)c21)OCO3 [NARCICLASINE]
Activity (Mus musculus [8]): 23.6%

CC1(C)[C@@H](O)C(O)=C[C@]2(C)[C@H]3C(=O)C=C4[C@@H]5C[C@@](C)(C(=O)O)CC[C@]5(C)CC[C@@]4(C)[C@]3(C)CC[C@@H]12
Activity (Mus musculus [9]): 26%
Activity (Mus musculus [10]): 20%
LD50 [11]: 940 mg/kg

C[C@H](CC(=O)C[C@@H](C)[C@H]1C[C@H](O)[C@@]2(C)C3=C(C(=O)C[C@]12C)[C@@]1(C)CCC(=O)C(C)(C)[C@@H]1C[C@@H]3O)C(=O)O [GANODERIC ACID A]
Activity (Mus musculus [12]): 17.4%

O=c1oc2cc(O)ccc2c2ccc(O)cc12
Activity (Mus musculus [13]): 30.8%
Activity (Mus musculus [14]): 42.7%

COc1cc2c(O)c3c(c(-c4ccc5c(c4)OCO5)c2cc1OC)C(=O)OC3 [DIPHYLLIN]
IC50 [15]: 0.017 µM
Activity (Mus musculus [16]): 13.7%

CC(C)=CCC[C@]1(C)[C@@H](CC=C(C)C)C[C@]2(CC=C(C)C)C(=O)C(CC=C(C)C)=C(O)[C@@]1(C(=O)C(C)C)C2=O
Kd [17]: 0.578 µM
Activity (Mus musculus [18]): -13.7%
